Columns and labels:
Type in all cases: biochemical
PIP4K2B = biological target: T1, PIP4K2B (Homo sapiens, UniProt P78356); assay: Trans-FI P kinase assay PIP4K2B (Table 4); settings: compounds listed under IC50 bins; read-out: Trans-FI P kinase assays: PIP4K2B IC50
T1 construct: made in house; host or cells: E. coli
T1 sequence (P78356 1-416): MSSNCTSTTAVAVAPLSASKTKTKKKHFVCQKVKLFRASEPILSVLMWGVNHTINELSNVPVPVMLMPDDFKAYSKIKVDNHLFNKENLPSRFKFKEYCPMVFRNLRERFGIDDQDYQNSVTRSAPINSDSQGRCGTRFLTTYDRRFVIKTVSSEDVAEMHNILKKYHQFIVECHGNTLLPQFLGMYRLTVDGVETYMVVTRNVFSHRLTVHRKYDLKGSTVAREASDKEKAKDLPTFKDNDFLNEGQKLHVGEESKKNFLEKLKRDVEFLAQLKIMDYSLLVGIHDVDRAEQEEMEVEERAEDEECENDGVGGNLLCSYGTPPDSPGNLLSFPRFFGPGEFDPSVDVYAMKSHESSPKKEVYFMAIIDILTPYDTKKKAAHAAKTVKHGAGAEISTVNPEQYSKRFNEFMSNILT
Description: GST tagged PIP4KtypeIIA and B enzymes were overexpressed in E. Coli and purified to >80% homogeneity. Phosphatidyl inositol-5-phosphate (PI5P, Cat. #850152, Avanti Polar Lipids Inc.) was used as the lipid substrate and phosphatidyl ethanolamine (DOPE 18:1, Cat. #850725, Avanti Polar Lipids Inc.) was used as the carrier lipid for assays. Ultrapure ATP and GTP was purchased from Bellbrooke Labs. ADP Glo reagents were obtained from Promega. Transcreener FI reagent was obtained from Bellbrooke labs.
GST-tagged PIP4KtypeIIB (3.4 μL, 2.77 mg/mL) was diluted to 5 mL using HNE buffer to yield 5× enzyme stock (25 nM)
Lipid Preparation: In a 10 mL pyrex glass vial, […] were suspended in 2.5 mL of HEPES buffer mix and 2.5 mL of H:E buffer. The contents were mixed and sonicated for 3 min to yield a translucent lipid stock.
Compound Preparation: Compounds were stored as 5 mM stocks in neat DMSO as room temperature in glass vials. 5 mM stocks were diluted to 2 mM and then serially diluted (3×) in neat DMSO in 96 well polypropylene plates. From the serially diluted stocks, 3 μL was delivered into 250 μL of 25% DMSO (in water) to generate 5× compound stocks. Typically, the highest compound conc. was 24 μM.
The assay volume was kept at 25 μL. To each well of the reaction plate, 10 μL of lipid stock (1:1 ratio PI5P:DOPE) was delivered. This was followed by the addition of 5 μL of compound in 25% DMSO. Then, to each well, 5 μL of 25 nM (5×) typeIIB enzyme was delivered. The contents were mixed well and incubated for 1 h at 27° C. After 1 h, reaction was initiated by adding 5 μL of 500 μM GTP and the contents were mixed well with a multi-channel pipetteman. The final concentration of the reagents are as follows: 50 mM HEPES, pH 7.3, 10 mM MgCl2, 20 mM NaCl, 0.01% v/v triton-X100, 5% DMSO, 100 μM GTP, 80 μM (2 μg) PI5P, 2 μg DOPE, and 5 nM PIP4KIIB Typically, the highest conc. of compounds was 4.8 μM and the lowest conc. was 0.
After 2 h, the reaction was quenched by adding 25 μL of transcreener FI reagent. The contents were incubated at rt for 1 h and the Fluorescence (Ex: 584 Em: 623) was read using Molecular Devices Paradigm plate reader. […] The blanks were averaged and subtracted from all other wells. Using a calibration curve, RFU was converted to μM GDP (product). IC50 was calculated by plotting the residual activity (expressed as % No inhibitor control) vs. log [Inh. conc.]

PIP4K2A [1] = biological target: T2, PIP4K2A (Homo sapiens, UniProt P48426); assay: ADP-glo kinase assay PIP4K 2A (Table 3); set-up: made in house; host or cells: E. coli; settings: compounds listed under IC50 bins
T2 sequence (P48426 1-406): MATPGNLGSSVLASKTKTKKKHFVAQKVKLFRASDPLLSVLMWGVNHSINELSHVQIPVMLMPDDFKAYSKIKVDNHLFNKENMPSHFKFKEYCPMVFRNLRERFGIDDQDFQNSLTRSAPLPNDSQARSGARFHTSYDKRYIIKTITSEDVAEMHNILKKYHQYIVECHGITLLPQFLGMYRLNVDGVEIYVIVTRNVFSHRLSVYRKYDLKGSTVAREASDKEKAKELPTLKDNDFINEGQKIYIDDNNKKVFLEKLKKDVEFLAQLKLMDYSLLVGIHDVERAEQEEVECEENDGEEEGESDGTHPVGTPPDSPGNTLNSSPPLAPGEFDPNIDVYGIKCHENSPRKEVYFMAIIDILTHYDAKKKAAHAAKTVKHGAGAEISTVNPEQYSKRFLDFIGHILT
Method: Dilution series of the compounds were prepared in DMSO at 100 times the final assay concentration (n1=n0/3 in 10 points). The compounds were further diluted to three times the assay concentration in assay buffer (20 mM MOPS pH 7.2, 25 mM magnesium chloride, 0.005% Tween 20). 6 μL of the diluted compounds were added to a 384 well assay plate followed by 9 μL of a mix consisting of 4 nM PIP4K2A (full length protein, SignalChem) and 100 μM PI(5)P diC8 (Tebu-Bio). Enzyme and compounds were pre-incubated at room temperature for 15 minutes.
Then 3 μL of a solution containing 60 μM ATP (Promega) in assay buffer was added to the wells containing compound and enzyme and mixing was performed by pipetting several times. The reaction was incubated at room temperature for 1 h. Then 18 μL of ADP-Glo™ Reagent (Promega) was added to stop the kinase reaction and deplete the unconsumed ATP, mixing was performed by pipetting several times. The plate was incubated at room temperature for 40 minutes before addition of 36 μL of Kinase Detection Reagent (Promega) to convert ADP to ATP and introduce luciferase and luciferin to detect ATP. The reaction was incubated at room temperature for 40 minutes before the luminescence was measured in a in a Victor 3V 1420 multilabel counter (Perkin Elmer).
Percent inhibition of the compounds as compared to dimethyl sulfoxide treated control samples was calculated. Compound concentration versus percent inhibition were fitted to generate IC50 values. […]

PIP4K2A [2] = biological target: T2, PIP4K2A; assay: Kinase Assay PIP4K2 A (Table 2); set-up: 4 nM PIP4K2A (full length protein, SignalChem); purchased SignalChem; settings: compounds listed under IC50 bins
Outline: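 Full-length PIP4K2A (4 nM in the added mix, with 100 μM PI(5)P diC8) pre-incubated 15 min at RT with compounds (10-point, 3-fold series) in 20 mM MOPS pH 7.2, 25 mM MgCl2, 0.005% Tween 20. ATP added from a 60 μM solution, 1 h at RT; ADP-Glo luminescence, IC50 fitted from % inhibition versus DMSO.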

SMILES | IC50 (PIP4K2B) [nM] | IC50 (PIP4K2A [1]) [nM] | IC50 (PIP4K2A [2]) [nM]
CC1C[C@H]2COc3ncc(Nc4ccc(-c5ccc(N6CCCC6=O)c(F)c5)cn4)cc3N2C1=O (stereo partly drawn) [Example 261, (6aS)-2-((5-(3-fluoro-4-(2-oxopyrrolidin-1-yl)phenyl)pyridin-2-yl)amino)-8-methyl-6,6a,7,8-tetrahydro-9H-pyrido[2,3-b]pyrrolo[1,2-d][1,4]oxazin-9-one] | 10 to 100 | 1 to 10 | 
CN(C)CCCC(=O)Nc1cccc(CCC(=O)Nc2cncc(Nc3ccc(-c4ccc(N5CCCC5=O)cc4)cn3)c2)c1 [Example 170, 4-(dimethylamino)-N-(3-(3-oxo-3-((5-((5-(4-(2-oxopyrrolidin-1-yl)phenyl)pyridin-2-yl)amino)pyridin-3-yl)amino)propyl)phenyl)butanamide] | 10 to 100 | 10 to 100 | 
O=C1CCCN1c1ccc(-c2ccc(Nc3cnc4c(c3)N3C(=O)OC[C@H]3CO4)nc2)cc1F [Example 295, (R)-8-((5-(3-fluoro-4-(2-oxopyrrolidin-1-yl)phenyl)pyridin-2-yl)amino)-3a,4-dihydro-1H,3H-oxazolo[3,4-d]pyrido[2,3-b][1,4]oxazin-1-one] | 10 to 100 | 1 to 10 | 
O=C([C@@H]1CCOC1)N1CCN(c2cncc(Nc3ccc(-c4ccc(N5CCCC5=O)cc4)cn3)c2)CC1 [Example 244, (R)-1-(4-(6-((5-(4-(tetrahydrofuran-3-carbonyl)piperazin-1-yl)pyridin-3-yl)amino)pyridin-3-yl)phenyl)pyrrolidin-2-one] | 10 to 100 | 100 to 1000 | 
O=C1CCCN1c1ccc(-c2ccc(Nc3cnc4c(c3)N3C(=O)OC[C@H]3CO4)nc2)cc1 [Example 265, (R)-8-((5-(4-(2-oxopyrrolidin-1-yl)phenyl)pyridin-2-yl)amino)-3a,4-dihydro-1H,3H-oxazolo[3,4-d]pyrido[2,3-b][1,4]oxazin-1-one] | 10 to 100 | 1 to 10 | 
CC(C)c1nc(Nc2cnc3c(c2)N2C(=O)C4(CC4)C[C@H]2CO3)ncc1-c1ccc(N2CCCC2=O)cc1 [Example 216, (S)-2′-((4-isopropyl-5-(4-(2-oxopyrrolidin-1-yl)phenyl)pyrimidin-2-yl)amino)-6a′,7′-dihydro-6′H,9′H-spiro[cyclopropane-1,8′-pyrido[2,3-b]pyrrolo[1,2-d][1,4]oxazin]-9′-one] | 1 to 10 | ≤ 1 | 
O=C1CCCN1c1ccc(-c2ccc(Nc3cnc4c(c3)N3C(=O)C5(CC5)C[C@H]3CO4)nc2)cc1 [Example 260, (S)-2′-((5-(4-(2-oxopyrrolidin-1-yl)phenyl)pyridin-2-yl)amino)-6a′,7′-dihydro-6′H,9′H-spiro[cyclopropane-1,8′-pyrido[2,3-b]pyrrolo[1,2-d][1,4]oxazin]-9′-one] | 1 to 10 | 1 to 10 | 
O=C(Nc1cncc(Nc2ccc(-c3ccc(N4CCCC4=O)cc3)cn2)c1)N1CCOCC1 [Example 251, N-(5-((5-(4-(2-oxopyrrolidin-1-yl)phenyl)pyridin-2-yl)amino)pyridin-3-yl)morpholine-4-carboxamide] | 10 to 100 | 100 to 1000 | 
Cc1cc(Nc2cnc3c(c2)N2C(=O)CC[C@H]2CO3)ncc1-c1ccc(N2CCCC2=O)cc1 [Example 176, (S)-2-((4-methyl-5-(4-(2-oxopyrrolidin-1-yl)phenyl)pyridin-2-yl)amino)-6,6a,7,8-tetrahydro-9H-pyrido[2,3-b]pyrrolo[1,2-d][1,4]oxazin-9-one] | 10 to 100 | 1 to 10 | 
COc1nc(Nc2cnc3c(c2)N2C(=O)CC[C@H]2CO3)ncc1-c1ccc(-n2nncc2C)cc1 [Example 288, (S)-2-((4-methoxy-5-(4-(5-methyl-1H-1,2,3-triazol-1-yl)phenyl)pyrimidin-2-yl)amino)-6,6a,7,8-tetrahydro-9H-pyrido[2,3-b]pyrrolo[1,2-d][1,4]oxazin-9-one] | 1 to 10 |  | ≤ 1
CN(C)C(=O)c1ccc(-c2ccc(Nc3cncc(NC(=O)c4cccc(N)c4)c3)nc2)cc1 [Example 99, 4-(6-((5-(3-aminobenzamido)pyridin-3-yl)amino)pyridin-3-yl)-N,N-dimethylbenzamide] | 10 to 100 |  | 10 to 100
Cc1conc1-c1ccc(-c2ccc(Nc3cnc4c(c3)N3C(=O)CC[C@H]3CO4)nc2)cc1 [Example 283, (S)-2-((5-(4-(4-methylisoxazol-3-yl)phenyl)pyridin-2-yl)amino)-6,6a,7,8-tetrahydro-9H-pyrido[2,3-b]pyrrolo[1,2-d][1,4]oxazin-9-one] | 10 to 100 |  | 1 to 10
COCc1cc(Nc2cnc3c(c2)N2C(=O)CC[C@H]2CO3)ncc1-c1ccc(-c2nocc2C)cc1 [Example 282, (S)-2-((4-(methoxymethyl)-5-(4-(4-methylisoxazol-3-yl)phenyl)pyridin-2-yl)amino)-6,6a,7,8-tetrahydro-9H-pyrido[2,3-b]pyrrolo[1,2-d][1,4]oxazin-9-one] | 10 to 100 |  | 1 to 10
O=C1CCC(N2C(=O)c3cccc(NCCOCCOCCOCC(=O)Nc4ccc(C(=O)Nc5cncc(Nc6ccc(-c7ccc(N8CCCC8=O)cc7)cn6)c5)cc4)c3C2=O)C(=O)N1 (stereo not shown) [Example 296, 4-(2-(2-(2-(2-((2-(2,6-dioxopiperidin-3-yl)-1,3-dioxoisoindolin-4-yl)amino)ethoxy)ethoxy)ethoxy)acetamido)-N-(5-((5-(4-(2-oxopyrrolidin-1-yl)phenyl)pyridin-2-yl)amino)pyridin-3-yl)benzamide] | 10 to 100 |  | 100 to 1000

Reference: patent US11667651B2, “Aminopyridine derivatives as phosphatidylinositol phosphate kinase inhibitors” (HiberCell, Inc., priority 2017, dated 2023)
